Columns and labels:
[1] = test system: corn; assay: 2014 Corn Trial—Scandia, Kans.; format: in vivo; settings: starter fertilizer treatment groups; for yield response (effect in words): FIG. 1, Table 8, improvement especially for groups without micronutrients (10-34-0, 9-18-9)
Method: A corn trial utilizing a composition of the instant disclosure was performed near Scandia, Kans., in 2014. In this example, the composition comprised ortho-ortho EDDHA as the exemplary ligand (i.e., “WC101”).
In this example, corn was planted on May 2, 2014. Treatments were applied as starter applications at planting with an application volume of 6 gpa. Weed control was completed as needed to keep weed free with maintenance sprays.
Data collected included yield (bu/acre), test weight, moisture, preliminary soil analysis, and plant tissue and grain analysis. Grain yield was measured harvesting the two center rows with a plot combine. Total phosphorus (P) content in plant tissue was measured for the ear leaf and grain P concentration was measured after harvest with grain analysis for total P content.
Fertilizer treatment mixes were completed before application. […] Although treatment application was complicated in some instances, the rates and placement for the instant example were believed to be within acceptable parameters. Grain yield was measured harvesting the two center rows with a plot combine. Total phosphorus (P) content in plant tissue was measured for the ear leaf and grain P concentration was measured after harvest with grain analysis for total P content.

[2] = Visual observations of fertilizer treatment mixes; format: physicochemical; settings: various fertilizers, for instance 9-18-9
[3] = test system: glycine max (variety PB0954RR) soybean; assay: 2013 Soybean Trial—St. Cloud, Minn.; format: in vivo; settings: compared to untreated controls
Method: A soybean trial utilizing a composition of the instant disclosure was performed in St. Cloud, Minn., in 2013. In this example, the composition comprised ortho-ortho EDDHA as the exemplary ligand.
(§1) In this example, glycine max (variety PB0954RR) soybean seeds were planted on Jun. 17, 2013. The tillage type was conventional till. The treated crop area for the instant example was 300 square feet (ft^2). The study design was randomized complete block (RCB) with four replications.
Soybean plants were harvested on Oct. 11, 2013. Thereafter, yield of soybean plants administered the composition comprising ortho-ortho EDDHA was compared to the yield of control soybean plants that were untreated.

[4] = test system: Zea mays (variety DKC 43-48); assay: 2012 Corn Trial—St. Cloud, Minn.; format: in vivo; settings: in furrow, compared to untreated controls
Method: A corn trial utilizing a composition of the instant disclosure was performed in St. Cloud, Minn., in 2012. In this example, the composition comprised ortho-ortho EDDHA as the exemplary ligand.
as §1, with “Zea mays” for “glycine max”, “DKC 43-48)” for “PB0954RR) soybean”, “May 15, 2012. Soil moisture was normal and the seed bed was compacted.” for “Jun. 17, 2013.”
Corn plants were harvested on Oct. 10, 2012. Thereafter, the yield of corn plants administered the composition comprising ortho-ortho EDDHA was compared to the yield of control corn plants that were untreated.

[5] = test system: corn variety Dekalb 45-51; assay: 2013 Corn Trial—Brookings, S. Dak.; format: in vivo; settings: compared to untreated controls
Method: A corn trial utilizing a composition of the instant disclosure was performed near Brookings, S. Dak., in 2013. In this example, the composition comprised ortho-ortho EDDHA as the exemplary ligand.
In this example, corn variety Dekalb 45-51 was planted on May 14, 2013. Corn was planted to a population of 32,000 plants per acre, and a 30-inch row spacing was used. The soil type was Brandt silty clay loam.
Corn plants were harvested on Oct. 24, 2013. Thereafter, the yield of corn plants administered the composition comprising ortho-ortho EDDHA was compared to the yield of control corn plants that were untreated.

[6] = test system: corn seeds; assay: 2013 Corn Seed Trial—Brookings, S. Dak.; format: in vivo; settings: corn seed treatment; compared to untreated controls
Method: A corn seed trial utilizing a composition of the instant disclosure was performed in Brookings, S. Dak., in 2013. In this example, the composition comprised ortho-ortho EDDHA as the exemplary ligand (i.e., “WC101”). The study design was randomized complete block (RCB) with four replications. […] [table] Plot unit sizes were approximately 10 feet by 40 feet according to the disclosed layout of FIG. 9.

[7] = test system: corn variety Pioneer 8640 Roundup Ready; assay: 2013 Corn Trial—Casselton, N. Dak.; format: in vivo; settings: compared to untreated controls

## O=C(O)C(NCCNC(C(=O)O)c1ccccc1O)c1ccccc1O (stereo not shown) [ortho-ortho EDDHA]
[1]; listed as WC101
  yield response (effect in words): improvement
[1]; listed as ligand
  yield response (effect in words): statistically significant effect
[1]; FIG. 2, Table 8, listed as WC101
  plant tissue phosphorus (P) response, ear leaf (effect in words): improvement
[1]; FIG. 2, Table 8, listed as ligand
  plant tissue phosphorus (P) response, ear leaf (effect in words): statistically significant effect
[1]; FIG. 3, Table 8, listed as WC101
  grain P removal response (effect in words): improvement
[1]; FIG. 3, Table 8, listed as ligand
  grain P removal response (effect in words): statistically significant effect
[2]
  compatibility with fertilizers in treatment mixes: possible compatibility issues
[3]
  yield increase: 5.1 bushels per acre
[4]
  yield increase: 8.5 bushels per acre
[5]
  yield increase: 8.2 bushels per acre
[6]
  emergence increase: 3.5%
  yield increase: 1.4 bushels per acre
[7]
  yield increase: 4.6 bushels per acre
